Where “and” joins values, the source holds several entries; their conditions need not be identical. Equal values may be shown once. A value given as a limit tells only on which side of the number the result lay.

The values that follow come from publication PMC12734540, “Unraveling the Potential Antiviral Activity of Isoxazoline-Carbocyclic Monophosphate Nucleotides Against Echovirus 11” (Microorganisms, 2025).

Series [1] relates to Echovirus 11. Put plainly: Post-infection CPE inhibition assay (crystal violet). The series is classed as cell-based, Echovirus 11 lineage 1. Conditions: for reduction in E11 infection / E11-induced CPE / EC50: MOI 0.025, 48 h, VERO 76 cells; for EC50: post-infection CPE inhibition.
Series [2] relates to Echovirus 11. The series is described as follows: E11 RNA quantification in supernatant by qRT-PCR (dose response). The series is classed as cell-based, Echovirus 11 lineage 1. As to conditions: 48 h; for reduction in extracellular viral RNA: supernatant, MOI 0.025, relative to untreated infected controls. The method, then: (§1) Quantification of E11 genomic RNA was used as a hallmark of RNA virus replication within VERO 76-infected cells. The viral RNA was extracted from both cell culture supernatants and cell-associated fractions and quantified by one-step qRT-PCR using the automated Elite InGenius one-step RNA Enterovirus ELITe MGB® Kit, according to the manufacturer’s protocols. The experiment was performed in triplicate and RNA yield was reported as the mean value of a triplicate assay. To improve the accuracy of extracellular RNA quantification, particularly at 48 h post-infection (p.i.), a secondary analysis was performed using a two-step SYBR Green RT-qPCR. In particular, specific primers targeting the gene encoding the RNA-dependent RNA polymerase (RdRp) of E11 were designed using the Primer3 software (version 4.1.0). […]. Reverse transcription was carried out with a high-capacity cDNA synthesis kit, followed by quantitative PCR using SYBR Green Master Mix on a real-time PCR instrument. Data were analyzed using the ΔΔCt method, with normalization to the synthetic RNA spike-in.
The antiviral activity of nucleotides 4a and 4b against E11 replication was further evaluated by quantifying viral RNA in the supernatant of infected VERO 76 cells treated with increasing concentrations of each compound (6.25–50 μM for 4a; 6.25–100 μM for 4b). Following viral infection at a MOI of 0.025, cells were treated and incubated for 48 h. Viral genome copies were then assessed by qRT-PCR. Treatment with nucleotide 4a led to a dose-dependent reduction in extracellular viral RNA, with a 72% decrease observed at 25 μM and an 89% reduction at 50 μM relative to untreated infected controls.
Background: In qPCR the cycle at which signal appears reflects the starting amount.

Series [3] concerns Echovirus 11. Put plainly: Time-course analysis of E11 RNA (cell monolayer and supernatant) by qRT-PCR. The series is classed as cell-based, Echovirus 11 lineage 1. As to conditions: 25 µM, MOI 0.025; for reduction in intracellular viral RNA levels: cell monolayer. As to the method:
as §1
To evaluate the antiviral activity of compound 4a in VERO 76 cells over time, viral replication was assessed through quantification of viral genome copies via qRT-PCR in both the cell-associated and supernatant fractions, as well as by CPE analysis.
The amount of viral RNA measured in the intracellular and the supernatant fractions was compared against the control group, which consisted of VERO 76 cells that were infected but not subjected to 4a treatment. […] (Figure 5A). […] (Figure 5B).

The test system of series [4] is Echovirus 11. Put plainly: Two-step SYBR Green RT-qPCR of RdRp gene RNA in supernatant. Conditions: 25 µM, 48 h p.i., vs untreated controls, p = 0.0003. Type of series: cell-based, Echovirus 11 lineage 1. As to the method: as §1
To further corroborate and confirm the inhibitory effect of 4a on viral RNA release into the extracellular environment, an additional quantification was performed using a two-step SYBR Green-based RT-qPCR targeting the gene ecoding for the viral RdRp. […]

Series [5] relates to VERO 76 cells. As to conditions: for cell viability: 25 µM.
Method: After 48 h of incubation, 20 µL of MTS reagent were added directly to each well and the plates were incubated according to the manufacturer’s protocol. The conversion of MTS into a soluble formazan product by metabolically active cells was quantified by measuring the absorbance at 490 nm. For data analysis, the optical density (OD) of each well was first corrected by subtracting the background OD (medium + MTS without cells). The percentage of cell viability was then calculated by comparing the corrected OD of treated samples with the mean corrected OD of untreated control cells (0 µM), which was set as 100% viability:Cell viability (%) = (OD_treated − OD_blank)/(mean OD_control − OD_blank) × 100
Two independent experiments were performed, each in triplicate (n = 6 per condition). Dose–response curves were generated and CC50 values were determined by nonlinear regression using GraphPad Prism software v. 8.0 (San Diego, CA, USA).
The subject of series [6] is SARS-CoV-2 RdRp. Also noted: method as in PMID 37810686. Conditions: cited from earlier work.
Series [7] concerns Echovirus 11. Put plainly: Plaque assay of infectious titer. Conditions: 25 µM, supernatants collected at 48 h p.i., vs untreated control (CV).
Method: E11 infectious titers were determined by plaque assay. Briefly, 100 µL of culture supernatant from infected cells were serially diluted (10-1–10-4) in DMEM containing 1% FBS. VERO 76 cells were seeded in 24-well plates 24 h before infection to obtain 90% confluency. Cells were inoculated with 50 µl of each dilution and incubated for 1 h at 37 °C with gentle rocking. After adsorption, the inoculum was removed, and cells were overlaid with DMEM containing 1% FBS and carboxymethyl cellulose (CMC). Following 72 h incubation, monolayers were fixed, stained with crystal violet, and plaques were counted. Viral titers were expressed as plaque-forming units per milliliter (PFU/mL) according to:PFU/mL = (number of plaques)/(dilution factor × inoculated volume).
The subject of series [8] is Echovirus 11. The series is described as follows: Infectivity of viral progeny (CPE on fresh cells). Conditions: 25 µM, supernatants collected 10, 24, 48 h p.i.
Method: To directly quantify this effect, a plaque assay was performed on supernatants collected at 48 h p.i.

With `O=P(O)(O)OC1CC(n2cnc3c(Cl)ncnc32)C2C(c3c4ccccc4c(Br)c4ccccc34)=NOC12` (stereo not shown) [4a], the “reduction in E11 infection / E11-induced CPE” value in series [1] (25 µM, post-infection) was 90% and 83.9%; in series [1] (50 µM, post-infection), 75% and 79.8%. For the same compound, the EC50 in series [1] is 8.15 ± 1.4 µM. Besides, the “reduction in extracellular viral RNA” value in series [2] (25 µM) was determined as 72%; in series [2] (50 µM), 89%. Moreover, the “reduction in intracellular viral RNA levels” value in series [3] (10 h p.i.) is reported as 43%; in series [3] (24 h p.i.), 65%. For the same compound, the figures for the “drop in viral RNA levels in supernatant” value in series [3] (24 h p.i.) and in series [3] (48 h p.i.) were 31% and 91%, respectively. For the same compound, in series [4], the “RdRp RNA levels in the supernatant” value was “significantly reduced”. This compound registered a cell viability in series [5] of more than 80%. Further, the “anti-SARS-CoV-2 RdRp activity” value in series [6] is reported as “moderate anti-SARS-CoV-2 RdRp activity”. Besides, the “decrease of infectious viral titer (PFU/mL)” value in series [7] is given as more than 10 fold. The “CPE in fresh VERO 76 cells exposed to supernatants of treated cultures” value in series [8] is on record as “markedly reduced CPE”.
Take `O=P(O)(O)OC1CC(n2cnc3c(Cl)ncnc32)C2ON=C(c3c4ccccc4c(Br)c4ccccc34)C12` (stereo not shown) [4b]: the “reduction in E11 infection / E11-induced CPE” value in series [1] (25 µM, post-infection) stood at 58%. For the same compound, the “reduction in E11 infection / E11-induced CPE” value in series [1] (50 µM, post-infection) is reported as 38%. In series [1], this compound gave an EC50 of 40.5 ± 1.8 µM. In addition, in series [2] (6.25–100 µM, MOI 0.025), the “effect on viral RNA levels in supernatant” value was “did not markedly affect viral RNA levels”. In series [5], the cytotoxic concentration (CC50) amounted to 93.7 µM and the cell viability was ~ 77%. The “anti-SARS-CoV-2 RdRp activity” value in series [6] was “moderate anti-SARS-CoV-2 RdRp activity”.
With `CCC(CC)COC(=O)[C@H](C)N[P@](=O)(OC[C@H]1O[C@@](C#N)(c2ccc3c(N)ncnn23)[C@H](O)[C@@H]1O)Oc1ccccc1` [RDV, Remdesivir, reference compound], the “protection from E11-induced CPE” value in series [1] (6.25 to 25 µM, post-infection, MOI 0.025, VERO 76 cells) is “robust and dose-dependent protection from E11-induced CPE”.

By EC50 is commonly meant the concentration that produces a half-maximal response. In general, cell viability refers to a per cent measure of how many cells are alive, often set against a control. A higher cell viability goes with less harm to the cells. What is called CC50 is the concentration at which the toxic effect on the cells reaches its halfway point. Low readings indicate greater toxicity to the cells, high ones lower toxicity to the cells.
